Read-outs that look alike come from different tables or passages of the source.
Assays:
[1] = test system: estrogen receptor (ER); assay type: in vivo, female Sprague/Dawley rats
Method: (§1) TCDD or MCDF was co-administered with a second dose of estradiol and the animals were killed 48-hours later. A second group of animals was similarly treated with corn oil, TCDD, MCDF, or TCDD plus MCDF, all administered in corn oil at 10 ml/kg and terminated 72 hours later.
(§2) The animals were terminated by cervical dislocation. Livers were perfused with ice-cold TEDG buffer (10 mM Tris-HCl, 1.5 mM EDTA-4Na, 1 mM dithiothreitol, 10% glycerol (v/v), pH 7.4). Following perfusion in situ, livers were removed, weighed, and homogenized in ice-cold TEDG buffer. Uteri were also removed, weighed, and homogenized in ice-cold buffer. The homogenates were then centrifuged at 800×g […] for 15 minutes and the nuclear pellets were stored at -80° C. The supernatants were further centrifuged at 180,000×g for 1.5 hour. The cytosolic supernatant was also stored at -80° C. Estrogen and progesterone receptor levels were determined within 7 days.
(§3) Estrogen and progesterone receptor levels were determined by the hydroxyapatite assay as described by Clark et al. (J. Steroid, Biochem., 16, 323-328 (1982)). […] Following the incubations, samples were counted and specific binding was calculated by subtraction of nonspecific from total binding. Assuming one steroid molecule binds to one estrogen/progesterone receptor, the number of moles of receptor can be calculated given the specific activity of the radioligand. […] Significant differences were determined by ANOVA.

[2] = test system: progesterone receptor (PR); assay type: in vivo, female Sprague/Dawley rats
Method: as §1, §2, §3

[3] = test system: female rat uterus; assay type: in vivo, female Sprague/Dawley rats
Method: as §1, §2

[4] = test system: 160-kDa protein; assay type: cell-based, human; details: for Secreted 160-kDa protein: 2880 min
Method: (§4) On day 0, the media was removed and the cells were rinsed two times with PBS. […] The cells were allowed to incubate for 48 h. […] After 6 h, the media was removed, 10 μl was counted and the remaining media was used for analysis of secreted proteins.
(§5) The secreted proteins were analyzed by sodium dodecyl sulfate (SDS) polyacrylamide gel electrophoresis; 30 μl of the media was mixed with an equal volume of buffer containing SDS, β-mercaptoethanol, glycerol, Tris and bromophenol blue. The samples were heated for 2 minutes in a boiling water bath and 50 μl of each sample was loaded onto a 1.5 mm thick 12% acrylamide slab gel (containing 0.075% bisacrylamide) with a 3% stacking gel (containing 0.15% bisacrylamide). The gels were run at […] overnight and processed for fluorography (using Enhance: Dupont) and exposed to Kodak X-OMAT film for 10 days at -80° C. The molecular weights of the proteins were estimated by their mobility relative to a set of standard proteins with known molecular weights.
(§6) The incorporation of ^35 S-methionine into the 34-kDa, 52-kDa and 160-kDa proteins was estimated by scanning the films using a Zeineh Soft Laser Scanning Densitometer (model SLR-20/10) from Biomedical Instruments,Inc. The percentage of the area of the scans due to the particular protein was then compared between the experimental and control samples and the results are presented as means ± SD for at least three samples per treatment group.

[5] = test system: 34-kDa protein; assay type: cell-based, human; details: for Secreted 34-kDa protein: 2880 min
Method: as §4, §5, §6

[6] = test system: 52-kDa protein; assay type: cell-based, human
Method: as §4, §5, §6

[7] = test system: nuclear ER; details: cited from earlier work
[8] = test system: MCF-7 human breast cancer cells; details: TCDD; cited from earlier work
[9] = test system: estrogen receptor; details: female rat; cited from earlier work
[10] = test system: progesterone receptor; details: female rat; cited from earlier work
[11] = Table 11, compound alone: TCDD 0.256 or MCDF 100 μmol/kg, or estradiol
[12] = 17β-estradiol (1 nM) + TCDD 0.0001 nM
[13] = 17β-estradiol (1 nM) + TCDD 0.001 nM
[14] = 17β-estradiol (1 nM) + TCDD 0.01 nM
[15] = 17β-estradiol (1 nM) + TCDD 0.1 nM

Clc1cc2c(cc1Cl)Oc1cc(Cl)c(Cl)cc1O2 [TCDD, 2,3,7,8-tetrachloridibenzo-p-dioxin]
Hepatic ERc ([1]; TCDD 0.256 μmol/kg): 1.7 ± 0.3 fmol/mg protein | Hepatic ERn ([1]; TCDD 0.256 μmol/kg): 2.3 ± 0.6 fmol/mg protein | Uterine ERc ([1]; TCDD 0.256 μmol/kg): 92.1 ± 8.2 fmol/mg protein | Uterine ERn ([1]; TCDD 0.256 μmol/kg): 10.6 ± 0.6 fmol/mg protein | Hepatic ERc [1, 11]: 2.2 ± 0.8 fmol/mg protein | Hepatic ERn [1, 11]: 2.4 ± 0.4 fmol/mg protein | Uterine ERc [1, 11]: 57.8 ± 6.3 fmol/mg protein | Uterine ERn [1, 11]: 11.7 ± 0.8 fmol/mg protein | Hepatic ERc ([1]; Table 11, cotreatment with E-2): 6.8 ± 1.0 fmol/mg protein | Hepatic ERn ([1]; Table 11, cotreatment with E-2): 4.0 ± 0.8 fmol/mg protein | Uterine ERc ([1]; Table 11, cotreatment with E-2): 82.8 ± 5.4 fmol/mg protein | Uterine ERn ([1]; Table 11, cotreatment with E-2): 17.4 ± 1.0 fmol/mg protein | Hepatic PRc ([2]; TCDD 0.256 μmol/kg): 38.3 ± 3.9 fmol/mg protein | Hepatic PRn ([2]; TCDD 0.256 μmol/kg): 5.9 ± 1.1 fmol/mg protein | Uterine PRc ([2]; TCDD 0.256 μmol/kg): 82 ± 30.2 fmol/mg protein | Uterine PRn ([2]; TCDD 0.256 μmol/kg): 190 ± 14.2 fmol/mg protein | Hepatic PRc [2, 11]: 61.9 ± 7.3 fmol/mg protein | Hepatic PRn [2, 11]: 5.9 ± 0.4 fmol/mg protein | Uterine PRc [2, 11]: 898.0 ± 49.2 fmol/mg protein | Uterine PRn [2, 11]: 180 ± 9.9 fmol/mg protein | Hepatic PRc ([2]; Table 11, cotreatment with E-2): 110.3 ± 8.3 fmol/mg protein | Hepatic PRn ([2]; Table 11, cotreatment with E-2): 6.8 ± 1.3 fmol/mg protein | Uterine PRc ([2]; Table 11, cotreatment with E-2): 811.3 ± 27.1 fmol/mg protein | Uterine PRn ([2]; Table 11, cotreatment with E-2): 511 ± 19.3 fmol/mg protein | Uterine Wet Weight ([3]; compound alone: TCDD 0.256 or MCDF 100 μmol/kg, or estradiol): 0.086 ± 0.011 % body wt | Uterine Wet Weight ([3]; cotreatment with E-2): 0.245 ± 0.026 % body wt | secretion of the 160-kDa protein ([4]; 10 nM TCDD alone): did not significantly affect | Secreted 160-kDa protein [4, 12]: 321 ± 29.0% of the values for control | Secreted 160-kDa protein [4, 13]: 167 ± 31.3% of the values for control | Secreted 160-kDa protein [4, 14]: 127 ± 21.0% of the values for control | Secreted 160-kDa protein [4, 15]: 94.3 ± 5.23% of the values for control | Secreted 160-kDa protein ([4]; TCDD alone, 0.0001 nM): 97.4 ± 2.73% of the values for control | Secreted 160-kDa protein ([4]; TCDD alone, 0.001 nM): 94.3 ± 3.00% of the values for control | Secreted 160-kDa protein ([4]; TCDD alone, 0.01 nM): 90.4 ± 17.2% of the values for control | Secreted 160-kDa protein ([4]; TCDD alone, 0.1 nM): 92.8 ± 5.16% of the values for control | hormone-induced secretion of the 160-kDa protein ([4]; TCDD plus 17β-estradiol): significantly inhibited | secretion of the 34-kDa protein ([5]; 10 nM TCDD alone): did not significantly affect | Secreted 34-kDa protein [5, 12]: 255 ± 37.8% of the values for control | Secreted 34-kDa protein [5, 13]: 151 ± 20.7% of the values for control | Secreted 34-kDa protein [5, 14]: 94.2 ± 24.0% of the values for control | Secreted 34-kDa protein [5, 15]: 94.9 ± 11.4% of the values for control | Secreted 34-kDa protein ([5]; TCDD alone, 0.0001 nM): 86.5 ± 8.56% of the values for control | Secreted 34-kDa protein ([5]; TCDD alone, 0.001 nM): 95.2 ± 12.8% of the values for control | Secreted 34-kDa protein ([5]; TCDD alone, 0.01 nM): 85.7 ± 11.9% of the values for control | Secreted 34-kDa protein ([5]; TCDD alone, 0.1 nM): 94.5 ± 133% of the values for control | hormone-induced secretion of the 34-kDa protein ([5]; TCDD plus 17β-estradiol): significantly inhibited | secretion of the 52-kDa protein ([6]; 10 nM TCDD alone): did not significantly affect | hormone-induced secretion of the 52-kDa protein ([6]; TCDD plus 17β-estradiol): significantly inhibited | immunoreactive ER protein ([7]; concentration-dependent, antibodies to human ER): decrease in immunoreactive ER protein | levels of occupied nuclear ER complex ([7]; cotreatment 10 nM TCDD plus [3H]-17β-estradiol): did not affect | occupied nuclear ER levels ([7]; pretreatment with TCDD 6 or 12 hours prior to radiolabeled hormone): significant downregulation | 17β-estradiol-induced growth of MCF-7 human breast cancer cells [8]: inhibits | constitutive and 17β-estradiol induced uterine and hepatic estrogen receptor levels [9]: decreased | constitutive and 17β-estradiol induced uterine and hepatic progesterone receptor levels [10]: decreased

Source: patent publication US5516790A, “Synthesis and application of alkyl-substituted dibenzofurans as antitumorigenic agents” (Texas A&M University System Technology Licensing Office, priority 1994, dated 1996)
